Results: US20250375428A1, “CBL-B INHIBITORS AND ANTI-PD1/ANTI-PD-L1 FOR USE IN THE TREATMENT OF CANCER” (HOTSPOT THERAPEUTICS, INC., priority 2022, published 2025)

What was measured:
CT26 tumor cells = assay: Subcutaneous syngeneic colorectal cancer model CT26 in female BALB/c mice; format: in vivo, mouse; conditions: Compound 29 30 mg/kg p.o. (QD or BID) in combination with anti-PD1 10 mg/kg i.p. BIW; FIG. 3
Description: The objective of this pharmacology study was to evaluate the anti-tumor growth efficacy of Compound 29 with in combination with anti-PD1 antibody (BP0146) or Isotype IgG2a (BP0089) in the treatment of the subcutaneous CT26 murine colorectal cancer model in female BALB/c mice.
Test particles were delivered via PO when the average tumor volume reached approximately 80 mm^3. Test articles was assessed at dose levels as described in Table 6. Tumor volumes and body weight were measured after the initiation of treatment.
The CT26 tumor cells were maintained in vitro with RPMI-1640 medium supplemented with 10% fetal bovine serum at 37° C. in an atmosphere of 5% CO^2 in air. The cells in exponential growth phase was harvested and quantitated by cell counter before tumor inoculation.
Each mouse was inoculated subcutaneously in the right lower flank region with CT26 tumor cells (5×10^5) in 0.1 ml of PBS for tumor development. […]
Tumor volumes were measured thrice per week after randomization in two dimensions using a caliper, and the volume was expressed in mm^3 using the formula: V=(L×W×W)/2, where V is tumor volume, L is tumor length (the longest tumor dimension) and W is tumor width (the longest tumor dimension perpendicular to L). […]
Tumor growth inhibition (TGI): TGI % is an indication of antitumor activity, and expressed as: TGI (%)=100×(1−T/C). […]

H22 tumor cells = assay: Subcutaneous H22 murine liver cancer model in female BALB/c mice; format: in vivo; parameters: Dunnett's multiple comparisons test Mean Diff.: unit: mm3; conditions: for TGI (%): day 12; for Dunnett's multiple comparisons test Mean Diff.: tumor volume
Description: The objective of this pharmacology study was to evaluate the anti-tumor growth efficacy of Compound 85 with in combination with anti-PD1 antibody (BP0146) in the treatment of the subcutaneous H22 murine liver cancer model in female BALB/c mice. Compound 85 test particles were delivered via PO when the average tumor volume reached approximately 80 mm^3. Compound 85 was assessed at 4 different dose levels (2 mpk, 6 mpk, 10 mpk, and 20 mpk for QD) in combination with anti-PD1 antibody (10 mpk, BIW). Tumor volumes and body weight were measured three times per week after the initiation of treatment.
The H22 tumor cells were maintained in vitro with RPMI-1640 medium supplemented with 10% fetal bovine serum at 37° C. in an atmosphere of 5% CO2. Cells in the exponential growth phase were harvested and quantified by cell counter before tumor inoculation.
Each mouse was inoculated subcutaneously in the right front flank region with H22 tumor cells (1×10e6) in 0.1 ml of PBS for tumor development.
After tumor inoculation, the animals were checked daily for morbidity and mortality. During routine monitoring, the animals were checked for any effects of tumor growth and treatments on behavior such as mobility, food and water consumption, body weight gain/loss (Body weights were measured thrice per week after randomization), eye/hair matting and any other abnormalities. Mortality and observed clinical signs were recorded for individual animals in detail.
Tumor volumes were measured three times per week after randomization in two dimensions using a caliper, and the volume was expressed in mm3 using the formula: V=(L×W×W)/2, where V is tumor volume, L is tumor length (the longest tumor dimension) and W is tumor width (the longest tumor dimension perpendicular to L). Dosing, as well as tumor and body weight measurements, were conducted in a Laminar Flow Cabinet.
Tumor growth inhibition (TGI): TGI % is an indication of antitumor activity, expressed as: TGI (%)=100×(1−T/C). T and C are the mean tumor volume (or weight) of the treated and control groups on a given day.
The treatment was performed for 21 days and the study was terminated on day 20 post dosing initiation.

In the case of `C[C@H]1CCCN(Cc2cc(C(F)(F)F)c3cn(-c4cccc(C5(Cc6nncn6C)COC5)c4)c(=O)n3c2)C1` [Compound 29], the “tumor growth inhibition of CT26 tumors” value (CT26 tumor cells) is reported as “further enhanced”.
For `C[C@H]1CCCN(Cc2cc(C(F)(F)F)c3cn(-c4cccc([C@H](c5nncn5C)C5CCC5)c4)c(=O)n3c2)C1` [Compound 85], the “TGI (%)” value (H22 tumor cells; Compound 85 2 mpk QD p.o. + anti-PD1 10 mpk BIW vs. Vehicle + isotype) was 74.8%, the “TGI (%)” value (H22 tumor cells; Compound 85 6 mpk QD p.o. + anti-PD1 10 mpk BIW vs. Vehicle + isotype) was 82.87% and the “tumor inhibition compared with anti-PD1 alone” value (H22 tumor cells; Compound 85 10 mpk QD and 20 mpk QD + anti-PD1 combination) was “statistically significant increase”. The “TGI (%)” value (H22 tumor cells; Compound 85 10 mpk QD p.o. + anti-PD1 10 mpk BIW vs. Vehicle + isotype) was 85.2%, the complete regression (H22 tumor cells; Compound 85 20 mpk QD and anti-PD1 combination group, day 20) was “One complete regression” and the “TGI (%)” value (H22 tumor cells; Compound 85 20 mpk QD p.o. + anti-PD1 10 mpk BIW vs. Vehicle + isotype) was 87.73%. The “benefit in combination with anti-PD1” value (H22 tumor cells; Compound 85 + anti-PD1) was “additive or synergistic benefit”, the “anti-tumor efficacy compared to single agent treatment” value (H22 tumor cells; Compound 85 at 2, 6, 10 and 20 mpk in combination with Anti-PD-1) was “increased anti-tumor efficacy” and the tolerability (H22 tumor cells; Compound 85 up to 20 mpk QD in combination with anti-PD1) was “No tolerability issue”. For the same compound, the “Dunnett's multiple comparisons test Mean Diff.” value (H22 tumor cells; Vehicle + isotype vs. Compound 85 2 mpk QD + anti-PD1) was 2158, the “Dunnett's multiple comparisons test Mean Diff.” value (H22 tumor cells; Vehicle + isotype vs. Compound 85 6 mpk QD + anti-PD1) was 2391 and the “Dunnett's multiple comparisons test Mean Diff.” value (H22 tumor cells; Vehicle + isotype vs. Compound 85 10 mpk QD + anti-PD1) was 2458. For the same compound, the “Dunnett's multiple comparisons test Mean Diff.” value (H22 tumor cells; Vehicle + isotype vs. Compound 85 20 mpk QD + anti-PD1) was 2531 and the “loss of average body weight” value (H22 tumor cells; day 2 of treatment, Compound 85 20 mpk QD and anti-PD1 combination) was “less than 5%”.
